Biological target: T1, Doublecortin-like kinase 1 (DCLK1) (Homo sapiens, UniProt O15075)
T1 construct: Purified kinase-active DCLK1 (cat. no., 02-139, Carna Biosciences)
T1 sequence (O15075 1-740): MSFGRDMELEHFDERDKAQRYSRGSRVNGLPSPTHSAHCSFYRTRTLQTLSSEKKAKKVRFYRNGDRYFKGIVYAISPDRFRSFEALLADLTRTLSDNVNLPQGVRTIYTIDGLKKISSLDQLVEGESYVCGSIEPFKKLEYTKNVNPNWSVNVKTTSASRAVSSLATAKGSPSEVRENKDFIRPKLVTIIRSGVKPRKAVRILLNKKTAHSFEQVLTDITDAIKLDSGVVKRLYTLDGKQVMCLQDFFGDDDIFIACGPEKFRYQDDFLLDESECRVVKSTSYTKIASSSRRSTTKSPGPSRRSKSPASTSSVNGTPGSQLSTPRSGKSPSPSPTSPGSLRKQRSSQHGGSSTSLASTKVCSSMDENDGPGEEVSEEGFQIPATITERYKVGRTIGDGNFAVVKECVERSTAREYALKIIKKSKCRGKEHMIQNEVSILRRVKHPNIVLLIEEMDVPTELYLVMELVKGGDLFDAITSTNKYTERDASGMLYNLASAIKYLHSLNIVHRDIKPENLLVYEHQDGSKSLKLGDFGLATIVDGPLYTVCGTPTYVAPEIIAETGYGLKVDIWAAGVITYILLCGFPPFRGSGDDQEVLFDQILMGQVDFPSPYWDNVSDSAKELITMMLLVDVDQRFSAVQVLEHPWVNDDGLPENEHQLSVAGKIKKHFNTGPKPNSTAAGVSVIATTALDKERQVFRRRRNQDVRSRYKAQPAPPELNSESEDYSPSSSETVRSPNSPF
Experiment: cell-free kinase assay with ULight-CREBtide peptide substrate, […] ATP (Envision readout)
Format: biochemical

SMILES: CN1C(=O)c2ccccc2N(C)c2nc(Nc3cnn(C4CCNCC4)c3)ncc21 [XMD-17-51]
- IC50: 14.6 nM

Source: article PMC7982674, “XMD-17-51 Inhibits DCLK1 Kinase and Prevents Lung Cancer Progression” (Frontiers in Pharmacology, 2021)
